Laboratory results taken from US10017535B2, “Amphiphilic compounds with neuroprotective properties” (USTAV ORGANICKE CHEMIE A BIOCHEMIE AV CR, v.v.i., priority 2014, dated 2018).

Legend:
Type in all cases: in vivo
[1] = test system: laboratory mice, strain CD-1; assay: Forced swimming test (antidepressant effect); as to Forced Swimming Test Reduced Floating: key: −: the desired effect was not observed; −/+: the desired effect was insufficient; +: the desired effect was observed
Description: (§1) In the Experimental Part 1 were used adults (30-35 g) male laboratory mice, strain CD-1 from Velaz facility, Czech Republic. Mice were housed in plastic boxes with a 12-hour light cycle (lights on at 7:00 pm). Mice had free access to food and water.
This assay was used to monitor the antidepressant effect. Animals float 6 minutes in acrylic cylinder in water at 24° C. A period of immobility is evaluated. The reduction is a manifestation of anti-depressant properties of drugs.

[2] = test system: laboratory mice, strain CD-1; assay: Open field test (locomotor activity, sedative effect); as to Open Field Test No Evidence of Hyperlocomotion: key: −: the desired effect was not observed; −/+: the desired effect was insufficient; +: the desired effect was observed; as to Sedative Effect The Rapid Onset of Sedation at a Dose of 100 mg/kg: key: −: the desired effect was not observed; −/+: the desired effect was insufficient; +: the desired effect was observed; conditions: for pathway in open field: dose 10 and 100 mg/kg, vs intact mice; for locomotor activity over time: higher dose of 10 resp. 100 mg/kg; for Sedative Effect The Rapid Onset of Sedation at a Dose of 100 mg/kg / Open Field Test No Evidence of Hyperlocomotion: intraperitoneally; for Open Field Test No Evidence of Hyperlocomotion: 0.1-100 mg/kg; for hyperlocomotion in open field: lower doses (below 10 mg/kg)
Description: as §1
(§2) Amphiphilic steroid compounds were dissolved in a solution of 3 g (2-hydroxypropyl)-β-cyclodextrin (CDX, Sigma-Aldrich) and 157 mg of citric acid ([…], Sigma-Aldrich) in 30 ml of distilled water, the pH was adjusted to 7.4 using sodium hydroxide (NaOH, Sigma-Aldrich). Thus there were prepared solutions of the four steroids for application rates of 0.1, 1, 10 and 100 mg/kg.
The efficacy of the studied compounds was compared to known NMDA antagonist is memantine (Sigma-Aldrich) at a dose of 5 mg/kg in rats, ketamine (Vétoquinol) at 10 mg/kg and dizocilpine (MK-801) (Sigma-Aldrich) at a dose of 0.3 mg/kg in mice. These three compounds were dissolved in saline (B Braun).
The substances at dose 0.1-100 mg/kg were administered before the test to mice intraperitoneally. As controls were used intact mice and mice that received CDX solution. Also, MK-801 (0.3 mg/kg) was used for comparison of effects of noncompetitive antagonist of NMDA receptors. From the experiment was evaluated overall track anywhere in the arena as an indicator of locomotor activity. In addition, it was judged a ten-minute segments track during each experiment. Based on these values, it was possible to determine the latency time of onset of action and changes in locomotor activity over time.
In this arrangement, the sedative effect of the studied compounds at the highest dose was evaluated. […] Over time was monitored locomotor activity and possible changes characterized by tremor, ataxia, restlessness, or sedation or general anesthesia (absence of response to stimuli, decreased muscle tone).

[3] = test system: laboratory mice, strain CD-1; assay: Elevated plus maze (anxiety); conditions: vs saline and CDX controls
Description: as §1, §2
The elevated plus maze (EPM) experiment was used to determine the effect of compounds on anxiety of animals at a dose of 1 mg/kg. Two control groups of animals were used to which was applied physiological saline and CDX solution, respectively. A noncompetitive NMDA receptor antagonist—ketamine (10 mg/kg) was given to a comparative group. The compounds were administered to mice intraperitoneally 30 minutes before testing in the EPM.

[4] = 1 mg/kg i.p., 30 minutes before testing

Molecule	Forced Swimming Test Reduced Floating [1]	pathway in open field [2]	locomotor activity over time [2]	Sedative Effect The Rapid Onset of Sedation at a Dose of 100 mg/kg [2]	flotation (immobility) ([1]; 1 mg/kg)	latency to the first flotation ([1]; 1 mg/kg)	number of entries into the open arms [3, 4]	total time spent in the open arms [3, 4]	number of entries into the open arms ([3]; 10 mg/kg)	total time spent in the open arms ([3]; 10 mg/kg)	signs of sleepiness and overall sedation ([2]; 10 resp. 100 mg/kg, between the 20th and 40th minute)	Open Field Test No Evidence of Hyperlocomotion [2]	hyperlocomotion in open field [2]
C[C@@]12CCCCC1[C@@H]1CC[C@@H]3C[C@H](OC(=O)[C@@H](N)CCC(=O)O)CC[C@]3(C)[C@H]1CC2 (stereo partly drawn) [Compound 106, (4S)-4-Amino-5-(((2R,4aS,4bS,6aS,10bS,12aR)-4a,6a-dimethyloctadekahydrochrysen-2-yl)oxy)-5-oxopentanoic acid]	−	significant reduction	significant decrease	−									
C[C@@]12CCC[C@H]1[C@@H]1CC[C@@H]3C[C@H](OC(=O)[C@@H](N)CCC(=O)O)CC[C@]3(C)[C@H]1CC2 [Compound 130, (4S)-4-Amino-5-(((3R,5R,8S,9S,10S,13S,14S)-10,13-dimethylhexadecahydro-1H-cyclopenta[a]phenanthren-3-yl)oxy)-5-oxopentanoic acid]	+	significant reduction	significant decrease	+	significant decrease	longer latency	significantly increased	significantly increased	not significantly altered	significant increase	most pronounced	+	not (unlike groups with dizocilpine) observed hyperlocomotion
Pyridinium (3S,3aS,5bR,7aR,9R,11aS,11bS,13aR)-3,11a-dimethylhexadecahydro-1H,3H-naphtho[2′,1′:4,5]indeno[1,7a-c]furan-9-yl 9-sulfate [Compound 124]	−	significant reduction	significant decrease	−								+	not (unlike groups with dizocilpine) observed hyperlocomotion
